The results in this text go back to ChEMBL document CHEMBL4364278, “2,7-naphthyridinone-based MET kinase inhibitors: A promising novel scaffold for antitumor drug development” (Eur J Med Chem, 2019).

The term bioavailability denotes dose-corrected exposure relative to a reference, in per cent. As a reminder, the half-life is the time needed for the level to fall by half in the phase considered. Broadly, the clearance is a measure of how efficiently the substance is removed, as volume per time. Lower therefore signals inefficient removal. A word on the AUC(0-inf): it is total exposure, with the tail of the curve extrapolated. Read a low AUC(0-inf) as less exposure. Usually Cmax stands for the peak of the concentration-time curve. Usually Tmax stands for the time from dosing to the highest level. Broadly, the Vd is a proportionality between amount in the body and measured concentration, not a real space. High values mean extensive tissue distribution, low ones confinement near the circulation. A word on the IC50: it is the concentration needed to halve the response being measured. High values mean weaker potency, low ones greater potency. Usually inhibition stands for the drop in the measured response relative to a control, in per cent. As a reminder, the AUC is concentration integrated over time. A higher AUC goes with more exposure.

The nature of data set [1]: Oral bioavailability in rat at 10 mg/kg. Type of data set: ADME, organism-based. Particulars: in vivo.
The nature of data set [2]: Half life in rat at 10 mg/kg, po. The data set is classed as ADME, organism-based. To be noted: in vivo.
A short description of data set [3]: Half life in rat at 2.5 mg/kg, iv. To be noted: in vivo. Type of data set: ADME, organism-based.
Data set [4] in a line: Clearance in rat at 2.5 mg/kg, iv. To be noted: in vivo. The data set is classed as ADME, organism-based.
Data set [5] can be described thus: AUC (0 to infinity) in rat at 2.5 mg/kg, iv. The data set is classed as ADME, organism-based. Set-up: dose 2.5 mg/kg, route intravenous, time infinity. Particulars: in vivo.
A short description of data set [6]: Cmax in rat at 10 mg/kg, po. Type of data set: ADME, organism-based. Set-up: dose 10 mg/kg, route oral. Particulars: in vivo.
Data set [7] in a line: AUC (0 to infinity) in rat at 10 mg/kg, po. Set-up: dose 10 mg/kg, route oral, time infinity. Particulars: in vivo. The data set is classed as ADME, organism-based.
Data set [8] in a line: Tmax in rat at 10 mg/kg, po. Type of data set: ADME, organism-based. Particulars: in vivo.
Data set [9] is described as follows: Volume of distribution in rat at 2.5 mg/kg, iv. To be noted: in vivo. Type of data set: ADME, organism-based.
Data set [10] concerns the target T1, Hepatocyte growth factor receptor (Homo sapiens, UniProt P08581).
Description: Inhibition of human recombinant His-tagged cMET cytoplasmic domain expressed in baculovirus expression system using biotin as substrate preincubated for 5 mins followed by substrate addition and measured after 30 to 60 mins by HTRF assay
Data set [11] deals with Tyrosine-protein kinase Lyn (Homo sapiens) (UniProt P07948). Briefly: Inhibition of LYN (unknown origin) at 1 uM relative to control.
The target in data set [12] is Discoidin domain-containing receptor 2 (Homo sapiens) (UniProt Q16832). In words: Inhibition of DDR2 (unknown origin) at 1 uM relative to control.
For data set [13], the target named is Aurora kinase B (Homo sapiens) (UniProt Q96GD4). In words: Inhibition of AuroraB (unknown origin) at 1 uM relative to control.
In data set [14] the test system is HT-29. In words: Antitumour activity against human HT-29 cells xenografted in athymic nude mouse assessed as tumor growth inhibition at 50 mg/kg, po administrated for 3 weeks by caliper method relative to control. Particulars: HT-29, po, 504 h, read-out: TGI. The data set is classed as functional. (A xenograft is tissue or cells of one species grown in another, often human tumour cells in immunodeficient mice.)

The target in data set [15] is Proto-oncogene tyrosine-protein kinase Src (Homo sapiens) (UniProt P12931). Briefly: Inhibition of SRC (1 to 530 residues)(unknown origin) at 1 uM relative to control.
Data set [16] has as its target High affinity nerve growth factor receptor (Homo sapiens) (UniProt P04629). Briefly: Inhibition of TRKA (unknown origin) at 1 uM relative to control.
For data set [17], the target named is Vascular endothelial growth factor receptor 1 (Homo sapiens) (UniProt P17948). Briefly: Inhibition of FLT1 (unknown origin) at 1 uM relative to control.
Data set [18] has as its target cAMP-dependent protein kinase catalytic subunit alpha (Homo sapiens) (UniProt P17612). In words: Inhibition of PKA (unknown origin) at 1 uM relative to control.
For data set [19], the target named is Vascular endothelial growth factor receptor 3 (Homo sapiens) (UniProt P35916). Briefly: Inhibition of FLT4 (unknown origin) at 1 uM relative to control.
Data set [20] relates to U-87 MG. In words: Antitumour activity against human U87MG cells xenografted in orally dosed athymic nude mouse assessed as inhibition in tumor growth administrated for 3 weeks by caliper method. The data set is classed as functional. To be noted: for inhibition: U-87MG ATCC; for minimal effective dose: po, 504 h, read-out: MED.
Data set [21] addresses Tyrosine-protein kinase receptor TYRO3 (Homo sapiens) (UniProt Q06418). Briefly: Inhibition of RSE (unknown origin) at 1 uM relative to control.
Data set [22] addresses Ephrin type-B receptor 4 (Homo sapiens) (UniProt P54760). In words: Inhibition of EphB4 (unknown origin) at 1 uM relative to control.
Data set [23] deals with Tyrosine-protein kinase Fgr (Homo sapiens) (UniProt P09769). In words: Inhibition of FGR (unknown origin) at 1 uM relative to control.
In data set [24] the target is Ephrin type-A receptor 3 (Homo sapiens) (UniProt P29320). In words: Inhibition of EphA3 (unknown origin) at 1 uM relative to control.
Data set [25] has as its system U-87 MG. Briefly: animal or person. To be noted: Mus musculus, po, 504 h, read-out: TGI.
Description: Antitumour activity against human U87MG cells xenografted in athymic nude mouse assessed as tumor growth inhibition at 25 mg/kg, po administrated for 3 weeks by caliper method relative to control
Data set [26] addresses Tyrosine-protein kinase receptor UFO (Homo sapiens) (UniProt P30530). In words: Inhibition of AXL (unknown origin) at 1 uM relative to control.
Data set [27] addresses Proto-oncogene tyrosine-protein kinase receptor Ret (Homo sapiens) (UniProt P07949). Briefly: Inhibition of RET (unknown origin) at 1 uM relative to control.
For data set [28], the target named is T1, Hepatocyte growth factor receptor. The source holds these as a separate data set.
Description: Inhibition of HGF-induced cMET autophosphorylation in human MKN45 cells preincubated for 1 hr followed by HGF addition and measured after 10 mins by ELISA
Data set [29] in a line: Fraction unbound in mouse plasma at 2 uM. The data set is classed as ADME, cell-free.
For data set [30], the target named is Tyrosine-protein kinase Lck (Homo sapiens) (UniProt P06239). In words: Inhibition of LCK (unknown origin) at 1 uM relative to control.
For data set [31], the target named is Macrophage-stimulating protein receptor (Homo sapiens) (UniProt Q04912). Briefly: Inhibition of RON (unknown origin) at 1 uM relative to control.
Data set [32] deals with HT-29. Briefly: Antitumour activity against human HT-29 cells xenografted in athymic nude mouse assessed as tumor growth inhibition at 25 mg/kg, po administrated for 3 weeks by caliper method relative to control. The data set is classed as functional. Particulars: HT-29, po, 504 h, read-out: TGI.
Data set [33] deals with Tyrosine-protein kinase Mer (Homo sapiens) (UniProt Q12866). In words: Inhibition of MER (unknown origin) at 1 uM relative to control.
The test system of data set [34] is U-87 MG. In words: Antitumour activity against human U87MG cells xenografted in athymic nude mouse assessed as tumor growth inhibition at 50 mg/kg, po administrated for 3 weeks by caliper method relative to control. The data set is classed as functional, U-87MG ATCC. Particulars: 504 h, read-out: TGI.
A short description of data set [35]: Fraction unbound in rat plasma at 2 uM. The data set is classed as ADME, cell-free.
The target in data set [36] is Proto-oncogene tyrosine-protein kinase ROS (Homo sapiens) (UniProt P08922). Briefly: Inhibition of ROS (unknown origin) at 1 uM relative to control.
Data set [37] can be described thus: Fraction unbound in human plasma at 2 uM. The data set is classed as ADME, cell-free.
Data set [38] deals with BDNF/NT-3 growth factors receptor (Homo sapiens) (UniProt Q16620). Briefly: Inhibition of TRKB (unknown origin) at 1 uM relative to control.
The target of data set [39] is Macrophage colony-stimulating factor 1 receptor (Homo sapiens) (UniProt P07333). In words: Inhibition of FMS (unknown origin) at 1 uM relative to control.
The test system of data set [40] is U-87 MG. In words: Antitumour activity against human U87MG cells xenografted in athymic nude mouse assessed as tumor growth inhibition at 12.5 mg/kg, po administrated for 3 weeks by caliper method relative to control. Particulars: 504 h, read-out: TGI. Type of data set: functional, U-87MG ATCC.
Data set [41] deals with Tyrosine-protein kinase Fes/Fps (Homo sapiens) (UniProt P07332). Briefly: Inhibition of FES (unknown origin) at 1 uM relative to control.
Data set [42] addresses Dual specificity tyrosine-phosphorylation-regulated kinase 2 (Homo sapiens) (UniProt Q92630). In words: Inhibition of DYRK2 (unknown origin) at 1 uM relative to control.
In data set [43] the test system is U-87 MG. Briefly: Antitumour activity against human U87MG cells xenografted in athymic nude mouse assessed as tumor growth inhibition at 40 mg/kg, po administrated for 3 weeks by caliper method relative to control. To be noted: 504 h, read-out: TGI.
Data set [44] concerns the target Vascular endothelial growth factor receptor 2 (Homo sapiens, UniProt P35968).
Description: Inhibition of recombinant human His-tagged VEGFR2 cytoplasmic domain expressed in baculovirus expression system using biotin as substrate preincubated for 5 mins followed by substrate addition and measured after 30 to 60 mins by HTRF assay

A value given as a limit tells only on which side of the number the result lay.

T1 sequence (P08581 whole entry): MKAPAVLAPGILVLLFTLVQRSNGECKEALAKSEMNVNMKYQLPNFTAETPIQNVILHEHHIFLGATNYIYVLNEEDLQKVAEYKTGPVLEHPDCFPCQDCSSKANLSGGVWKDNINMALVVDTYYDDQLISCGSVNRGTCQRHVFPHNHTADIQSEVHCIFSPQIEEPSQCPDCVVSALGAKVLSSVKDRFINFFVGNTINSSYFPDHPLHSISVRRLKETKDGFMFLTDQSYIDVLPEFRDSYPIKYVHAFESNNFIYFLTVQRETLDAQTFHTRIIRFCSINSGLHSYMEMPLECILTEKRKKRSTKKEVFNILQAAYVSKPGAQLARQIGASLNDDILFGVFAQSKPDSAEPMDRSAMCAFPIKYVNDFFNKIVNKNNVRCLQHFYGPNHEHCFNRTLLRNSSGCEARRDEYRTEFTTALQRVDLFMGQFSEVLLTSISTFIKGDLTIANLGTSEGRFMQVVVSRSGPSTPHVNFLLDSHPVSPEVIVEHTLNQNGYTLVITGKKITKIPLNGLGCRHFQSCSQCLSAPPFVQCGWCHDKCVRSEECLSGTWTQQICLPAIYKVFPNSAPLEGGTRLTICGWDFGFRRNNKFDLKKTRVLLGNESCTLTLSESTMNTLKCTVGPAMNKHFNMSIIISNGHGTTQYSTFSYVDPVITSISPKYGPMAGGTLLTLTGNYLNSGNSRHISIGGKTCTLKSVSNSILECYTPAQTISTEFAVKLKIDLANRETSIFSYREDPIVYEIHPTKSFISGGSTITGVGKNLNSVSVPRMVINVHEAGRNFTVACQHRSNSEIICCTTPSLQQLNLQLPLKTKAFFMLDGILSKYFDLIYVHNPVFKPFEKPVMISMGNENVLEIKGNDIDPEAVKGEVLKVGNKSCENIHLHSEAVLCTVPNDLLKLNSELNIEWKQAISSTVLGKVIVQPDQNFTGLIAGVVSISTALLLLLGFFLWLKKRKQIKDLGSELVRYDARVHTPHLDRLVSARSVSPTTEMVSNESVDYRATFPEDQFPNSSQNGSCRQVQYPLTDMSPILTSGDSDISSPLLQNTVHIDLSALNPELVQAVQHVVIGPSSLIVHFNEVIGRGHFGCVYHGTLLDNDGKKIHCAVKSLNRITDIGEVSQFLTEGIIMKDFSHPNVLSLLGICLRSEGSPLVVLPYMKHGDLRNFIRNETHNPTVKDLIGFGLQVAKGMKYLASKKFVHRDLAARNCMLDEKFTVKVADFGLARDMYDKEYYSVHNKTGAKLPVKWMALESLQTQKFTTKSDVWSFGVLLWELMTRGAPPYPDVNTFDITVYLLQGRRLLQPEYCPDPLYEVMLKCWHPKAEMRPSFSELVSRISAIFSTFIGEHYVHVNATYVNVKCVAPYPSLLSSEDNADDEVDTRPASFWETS
Tyrosine-protein kinase Fgr (Homo sapiens), sequence (P09769 2-529 limits assumed): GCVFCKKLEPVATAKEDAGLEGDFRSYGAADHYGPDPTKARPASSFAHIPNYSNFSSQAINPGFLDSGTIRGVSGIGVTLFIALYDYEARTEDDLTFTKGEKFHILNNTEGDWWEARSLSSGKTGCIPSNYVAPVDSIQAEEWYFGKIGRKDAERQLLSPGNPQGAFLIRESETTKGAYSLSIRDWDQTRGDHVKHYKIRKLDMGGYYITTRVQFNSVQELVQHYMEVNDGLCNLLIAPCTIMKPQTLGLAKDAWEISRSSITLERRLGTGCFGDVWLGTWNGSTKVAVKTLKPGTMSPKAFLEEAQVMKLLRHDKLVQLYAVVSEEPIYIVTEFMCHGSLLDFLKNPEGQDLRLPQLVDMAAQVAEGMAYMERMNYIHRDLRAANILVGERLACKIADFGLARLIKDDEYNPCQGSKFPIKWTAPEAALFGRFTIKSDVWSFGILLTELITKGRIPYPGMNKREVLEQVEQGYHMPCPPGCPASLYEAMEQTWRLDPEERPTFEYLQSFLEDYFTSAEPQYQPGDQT
Ephrin type-A receptor 3 (Homo sapiens), sequence (P29320 whole entry): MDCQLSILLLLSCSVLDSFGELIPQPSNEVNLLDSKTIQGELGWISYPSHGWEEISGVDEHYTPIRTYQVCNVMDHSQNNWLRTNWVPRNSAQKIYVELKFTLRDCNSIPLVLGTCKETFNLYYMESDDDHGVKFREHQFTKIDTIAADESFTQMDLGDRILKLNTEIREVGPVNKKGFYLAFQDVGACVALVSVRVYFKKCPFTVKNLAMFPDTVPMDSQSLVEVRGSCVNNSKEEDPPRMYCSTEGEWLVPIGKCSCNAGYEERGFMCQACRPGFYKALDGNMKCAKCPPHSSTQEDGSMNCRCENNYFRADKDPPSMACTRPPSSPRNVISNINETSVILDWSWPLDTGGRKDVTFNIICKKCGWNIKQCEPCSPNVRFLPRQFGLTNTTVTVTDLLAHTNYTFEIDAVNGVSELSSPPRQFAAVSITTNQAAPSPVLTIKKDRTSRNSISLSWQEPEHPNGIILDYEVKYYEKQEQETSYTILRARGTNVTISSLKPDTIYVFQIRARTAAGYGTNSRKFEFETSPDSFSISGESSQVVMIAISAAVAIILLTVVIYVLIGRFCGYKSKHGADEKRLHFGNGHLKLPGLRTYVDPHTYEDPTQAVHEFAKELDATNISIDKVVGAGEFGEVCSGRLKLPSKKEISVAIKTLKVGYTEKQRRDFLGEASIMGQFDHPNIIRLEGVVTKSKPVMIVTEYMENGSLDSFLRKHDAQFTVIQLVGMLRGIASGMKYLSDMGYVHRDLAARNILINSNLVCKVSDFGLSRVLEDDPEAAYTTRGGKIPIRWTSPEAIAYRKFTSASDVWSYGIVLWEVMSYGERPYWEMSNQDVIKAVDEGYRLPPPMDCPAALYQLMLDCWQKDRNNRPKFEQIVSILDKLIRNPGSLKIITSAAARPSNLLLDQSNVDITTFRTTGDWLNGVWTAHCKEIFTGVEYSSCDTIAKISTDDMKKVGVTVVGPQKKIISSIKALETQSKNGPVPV
Proto-oncogene tyrosine-protein kinase Src (Homo sapiens), sequence (P12931 2-536 limits assumed): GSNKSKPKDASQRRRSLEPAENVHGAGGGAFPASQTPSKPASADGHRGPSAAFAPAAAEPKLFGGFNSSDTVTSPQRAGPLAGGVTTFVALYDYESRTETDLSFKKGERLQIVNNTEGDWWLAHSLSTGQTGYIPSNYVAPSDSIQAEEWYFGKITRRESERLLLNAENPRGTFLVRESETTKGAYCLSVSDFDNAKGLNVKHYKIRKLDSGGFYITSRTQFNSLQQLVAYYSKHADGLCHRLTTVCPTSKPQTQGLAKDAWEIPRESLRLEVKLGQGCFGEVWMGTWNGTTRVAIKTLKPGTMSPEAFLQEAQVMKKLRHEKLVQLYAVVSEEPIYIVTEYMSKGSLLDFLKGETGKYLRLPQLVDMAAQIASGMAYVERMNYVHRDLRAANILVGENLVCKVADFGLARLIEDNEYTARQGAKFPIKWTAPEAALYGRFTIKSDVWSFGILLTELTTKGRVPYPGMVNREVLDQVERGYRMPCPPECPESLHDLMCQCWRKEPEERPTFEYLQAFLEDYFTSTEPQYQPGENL
Vascular endothelial growth factor receptor 2, sequence (P35968 whole entry): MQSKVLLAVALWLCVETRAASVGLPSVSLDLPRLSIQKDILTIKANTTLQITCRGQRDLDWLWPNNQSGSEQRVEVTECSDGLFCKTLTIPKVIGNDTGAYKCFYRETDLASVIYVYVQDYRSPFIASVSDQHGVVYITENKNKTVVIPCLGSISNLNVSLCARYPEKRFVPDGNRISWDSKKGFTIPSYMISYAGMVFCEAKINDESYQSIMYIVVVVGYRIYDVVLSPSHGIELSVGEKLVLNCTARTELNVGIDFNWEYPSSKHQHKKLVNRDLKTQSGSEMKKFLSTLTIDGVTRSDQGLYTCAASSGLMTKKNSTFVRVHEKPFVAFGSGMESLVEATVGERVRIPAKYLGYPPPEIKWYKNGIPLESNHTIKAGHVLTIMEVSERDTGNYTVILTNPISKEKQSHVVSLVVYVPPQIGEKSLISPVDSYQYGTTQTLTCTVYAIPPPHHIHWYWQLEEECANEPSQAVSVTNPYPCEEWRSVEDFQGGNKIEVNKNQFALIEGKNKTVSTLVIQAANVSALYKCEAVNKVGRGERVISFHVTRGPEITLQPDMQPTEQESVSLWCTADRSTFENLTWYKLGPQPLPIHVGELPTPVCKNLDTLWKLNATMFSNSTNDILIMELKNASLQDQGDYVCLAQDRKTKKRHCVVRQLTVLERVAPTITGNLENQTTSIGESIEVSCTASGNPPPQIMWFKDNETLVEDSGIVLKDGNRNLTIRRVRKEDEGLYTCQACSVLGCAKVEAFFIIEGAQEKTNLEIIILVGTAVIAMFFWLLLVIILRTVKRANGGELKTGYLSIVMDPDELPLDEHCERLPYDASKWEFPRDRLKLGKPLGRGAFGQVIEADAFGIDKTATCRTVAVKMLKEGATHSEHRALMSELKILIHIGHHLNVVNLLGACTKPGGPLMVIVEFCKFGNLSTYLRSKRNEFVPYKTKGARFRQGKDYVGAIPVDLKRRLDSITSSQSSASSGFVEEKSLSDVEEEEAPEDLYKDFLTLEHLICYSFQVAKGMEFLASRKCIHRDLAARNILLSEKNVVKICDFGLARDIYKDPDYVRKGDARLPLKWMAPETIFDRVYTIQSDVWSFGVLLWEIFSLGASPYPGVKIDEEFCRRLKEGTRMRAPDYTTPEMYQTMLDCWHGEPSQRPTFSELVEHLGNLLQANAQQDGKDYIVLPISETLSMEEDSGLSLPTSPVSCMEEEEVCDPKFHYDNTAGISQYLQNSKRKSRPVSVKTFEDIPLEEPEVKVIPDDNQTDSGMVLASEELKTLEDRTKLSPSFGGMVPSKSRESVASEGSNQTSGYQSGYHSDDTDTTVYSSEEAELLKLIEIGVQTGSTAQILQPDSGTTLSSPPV

In the case of `Cc1cc2ccnc(Nc3ccc(Oc4ccnc(N)c4I)c(F)c3)c2c(=O)n1-c1ccc(F)cc1`, the bioavailability in data set [1] came to 49%. The figures for the half-life in data set [2] and in data set [3] were 4.9 h and 4.2 h, respectively. The molecule further gave a clearance in [4] of 6.67 mL/min/kg. The AUC(0-inf) was determined as 13100 ng·h/mL in [5] and 25700 ng·h/mL in data set [7]. This molecule also had a Cmax in data set [6] of 2700 ng/mL. In addition, the Tmax in [8] amounted to 1.5 h. The Vd in data set [9] was found to be 2.9 L/kg.

In the case of `Cc1cc2ccnc(Nc3ccc(Oc4ccnc(N)c4Cl)c(F)c3)c2c(=O)n1-c1ccc(OC(F)(F)F)cc1`, the IC50 in [10] is over 1000 nM.

Consider `Nc1nccc(Oc2ccc(Nc3nccc4ccn(-c5ccc(F)cc5)c(=O)c34)cc2F)c1Cl`, for which the inhibition in [11] was found to be 43%; in data set [12] it was 98%; in [13], 44%; in data set [15] it was 35%; in data set [16], 99%; in data set [17], 95%. Also, the inhibition is 43% in data set [18]; 100% in [19]; “Dose-dependent effect” in the data set on U-87 MG [20]; 83% in data set [21]; 10% in data set [22]; 62% in data set [23]. Also, the inhibition in [24] came out at 38%; in [26], 97%; in [27] it was 96%; in [30] it was 75%; in [31] it was 100%; in data set [33] it was 100%. Moreover, the inhibition in data set [36] was 87%; in data set [38], 100%; in [39] it was 88%; in data set [41], 10%; in data set [42] it was -9%. For the same molecule, the figures for the inhibition in vivo at 50 mg/kg in the data set on HT-29 [14] and in the data set with U-87 MG [34] were 95% and 114%, respectively. In [1], this molecule showed a bioavailability of 54%. Besides, the half-life in data set [2] is 5.1 h; in [3], 3.2 h. In addition, the clearance in [4] is 13.3 mL/min/kg. The minimal effective dose with U-87 MG [20] stood at 12.5 mg/kg. Further, the total exposure AUC(0-inf) was determined as 3100 ng·h/mL in [5] and 6700 ng·h/mL in data set [7]. This molecule came in with a Cmax in data set [6] of 1600 ng/mL. In addition, the figures for the inhibition in vivo at 25 mg/kg in the data set with U-87 MG [25] and in the data set on HT-29 [32] were 100% and 50%, respectively. In [28], this molecule showed an IC50 of 69 nM. Moreover, the Fu in data set [29], in data set [35] and in [37] was under 0.5% in each case. Besides, in data set [8], the Tmax amounted to 1.2 h. In addition, the inhibition in vivo at 12.5 mg/kg in the data set on U-87 MG [40] is 53%. In [9], this molecule yielded a Vd of 3.6 L/kg.

With `Cc1cc2ccnc(Nc3ccc(Oc4ccnc(N)c4Cl)c(F)c3)c2c(=O)n1-c1ccc(F)cc1`, the bioavailability in [1] worked out at 51%. Besides, the figures for the half-life in [2] and in data set [3] were 11 h and 7 h, respectively. Moreover, the CL in data set [4] amounted to 103 mL/min/kg. Also, in the data set on U-87 MG [43], the inhibition in vivo at 40 mg/kg was determined as 72%. In addition, the inhibition entry in the data set with U-87 MG [20] was “Dose-dependent effect”. In addition, in the data set on U-87 MG [20], the minimal effective dose amounted to 32.5 mg/kg. In addition, the AUC in data set [5] turned out to be 10500 ng·h/mL. The molecule further registered a Cmax in data set [6] of 3700 ng/mL. Moreover, in the data set with U-87 MG [25], the inhibition in vivo at 25 mg/kg worked out at 44%. In data set [7], the AUC(0-inf) was found to be 21200 ng·h/mL. In addition, the Tmax in [8] is 2.3 h. This molecule gave a Vd in data set [9] of 2.4 L/kg.

For the molecule `CCOc1ccn(-c2ccc(F)cc2)c(=O)c1C(=O)Nc1ccc(Oc2ccnc(N)c2Cl)c(F)c1` [BMS-777607], the IC50 was found to be 139 nM in data set [44], 7.6 nM in data set [10] and 46.6 nM in data set [28]. The inhibition in vivo at 25 mg/kg worked out at 98% in the data set with U-87 MG [25] and 15% in the data set on HT-29 [32].
